In series [1] the target is Proto-oncogene tyrosine-protein kinase Src (Homo sapiens, UniProt P12931). Nature of the series: Inhibition of SRC (unknown origin) assessed as residual activity at 10 uM incubated for 5 mins in presence of [gamma-33ATP] by scintillation counting based radiometry assay relative to control.
Series [2] is described as follows: Metabolic stability in human liver microsomes assessed as half life at 3 uM measured up to 30 mins in presence of NADPH by […] analysis. Format: ADME, Microsome. Background: Liver microsomes are a subcellular fraction often used to study metabolism.
In series [3] the target is T1, Mitogen-activated protein kinase kinase kinase kinase 3 (Homo sapiens) (UniProt Q8IVH8).
T1 sequence (whole entry): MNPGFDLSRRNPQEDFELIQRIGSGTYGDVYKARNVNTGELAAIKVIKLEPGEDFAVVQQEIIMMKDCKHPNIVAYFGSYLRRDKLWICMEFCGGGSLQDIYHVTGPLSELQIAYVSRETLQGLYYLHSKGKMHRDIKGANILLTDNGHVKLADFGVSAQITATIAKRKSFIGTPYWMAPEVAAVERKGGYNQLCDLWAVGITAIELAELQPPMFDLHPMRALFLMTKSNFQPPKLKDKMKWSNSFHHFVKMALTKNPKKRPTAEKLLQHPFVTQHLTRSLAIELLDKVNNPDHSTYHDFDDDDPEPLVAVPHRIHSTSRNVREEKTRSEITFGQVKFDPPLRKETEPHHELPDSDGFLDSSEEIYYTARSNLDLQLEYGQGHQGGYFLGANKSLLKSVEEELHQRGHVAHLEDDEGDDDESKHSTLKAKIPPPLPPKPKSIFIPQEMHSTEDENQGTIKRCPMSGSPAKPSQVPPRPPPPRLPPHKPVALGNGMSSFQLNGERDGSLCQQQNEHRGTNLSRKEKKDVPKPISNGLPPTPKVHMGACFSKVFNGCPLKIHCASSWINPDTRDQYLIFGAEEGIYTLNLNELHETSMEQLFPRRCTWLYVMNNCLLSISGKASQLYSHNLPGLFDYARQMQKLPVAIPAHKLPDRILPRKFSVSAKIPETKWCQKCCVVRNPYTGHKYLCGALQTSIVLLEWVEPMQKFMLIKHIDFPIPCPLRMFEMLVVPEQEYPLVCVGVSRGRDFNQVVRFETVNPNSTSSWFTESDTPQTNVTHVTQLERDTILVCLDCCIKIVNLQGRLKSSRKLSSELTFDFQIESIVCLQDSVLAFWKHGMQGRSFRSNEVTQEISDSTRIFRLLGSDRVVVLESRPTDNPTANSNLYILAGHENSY
Nature of the series: Inhibition of MAP4K3 (unknown origin) assessed as residual activity at 10 uM incubated for 5 mins in presence of [gamma-33ATP] by scintillation counting based radiometry assay relative to control.

Series [4] addresses T2, Ephrin type-B receptor 2 (Homo sapiens) (UniProt P29323).
T2 sequence (whole entry): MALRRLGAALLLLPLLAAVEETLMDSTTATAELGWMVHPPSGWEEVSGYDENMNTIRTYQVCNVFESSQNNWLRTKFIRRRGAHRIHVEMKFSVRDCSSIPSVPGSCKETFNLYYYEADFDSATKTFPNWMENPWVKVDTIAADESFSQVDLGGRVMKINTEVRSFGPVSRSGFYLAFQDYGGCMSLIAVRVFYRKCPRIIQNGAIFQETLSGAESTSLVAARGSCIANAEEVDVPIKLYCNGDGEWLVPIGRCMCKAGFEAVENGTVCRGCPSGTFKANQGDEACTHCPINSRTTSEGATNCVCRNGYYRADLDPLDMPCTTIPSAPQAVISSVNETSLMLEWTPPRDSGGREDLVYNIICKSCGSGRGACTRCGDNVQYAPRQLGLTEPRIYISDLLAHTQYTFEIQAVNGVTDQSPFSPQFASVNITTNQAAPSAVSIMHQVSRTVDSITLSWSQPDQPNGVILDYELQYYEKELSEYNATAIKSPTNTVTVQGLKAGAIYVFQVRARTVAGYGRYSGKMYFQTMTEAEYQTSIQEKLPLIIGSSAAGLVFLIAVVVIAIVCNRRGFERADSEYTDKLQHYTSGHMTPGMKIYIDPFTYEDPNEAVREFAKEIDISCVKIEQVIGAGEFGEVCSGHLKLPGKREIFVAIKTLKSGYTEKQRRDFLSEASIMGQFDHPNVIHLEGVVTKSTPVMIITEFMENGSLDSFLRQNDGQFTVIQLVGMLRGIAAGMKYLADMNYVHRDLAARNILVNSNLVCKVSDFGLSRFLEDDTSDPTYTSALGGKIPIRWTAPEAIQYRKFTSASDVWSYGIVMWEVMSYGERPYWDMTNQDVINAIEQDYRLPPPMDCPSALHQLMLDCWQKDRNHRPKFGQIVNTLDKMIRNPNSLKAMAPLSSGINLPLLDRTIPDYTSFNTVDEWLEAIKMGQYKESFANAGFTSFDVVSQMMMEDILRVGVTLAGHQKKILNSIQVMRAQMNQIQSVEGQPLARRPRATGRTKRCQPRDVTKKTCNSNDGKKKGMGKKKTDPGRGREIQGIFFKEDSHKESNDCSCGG
Nature of the series: Inhibition of EPHB2 (unknown origin) assessed as residual activity at 10 uM incubated for 5 mins in presence of [gamma-33ATP] by scintillation counting based radiometry assay relative to control.

Series [5] can be described thus: Metabolic stability in mouse liver microsomes assessed as half life at 3 uM measured up to 30 mins in presence of NADPH by […] analysis. Format: ADME, Microsome.
For series [6], the target named is T3, Discoidin domain-containing receptor 2 (Homo sapiens) (UniProt Q16832).
T3 sequence (whole entry): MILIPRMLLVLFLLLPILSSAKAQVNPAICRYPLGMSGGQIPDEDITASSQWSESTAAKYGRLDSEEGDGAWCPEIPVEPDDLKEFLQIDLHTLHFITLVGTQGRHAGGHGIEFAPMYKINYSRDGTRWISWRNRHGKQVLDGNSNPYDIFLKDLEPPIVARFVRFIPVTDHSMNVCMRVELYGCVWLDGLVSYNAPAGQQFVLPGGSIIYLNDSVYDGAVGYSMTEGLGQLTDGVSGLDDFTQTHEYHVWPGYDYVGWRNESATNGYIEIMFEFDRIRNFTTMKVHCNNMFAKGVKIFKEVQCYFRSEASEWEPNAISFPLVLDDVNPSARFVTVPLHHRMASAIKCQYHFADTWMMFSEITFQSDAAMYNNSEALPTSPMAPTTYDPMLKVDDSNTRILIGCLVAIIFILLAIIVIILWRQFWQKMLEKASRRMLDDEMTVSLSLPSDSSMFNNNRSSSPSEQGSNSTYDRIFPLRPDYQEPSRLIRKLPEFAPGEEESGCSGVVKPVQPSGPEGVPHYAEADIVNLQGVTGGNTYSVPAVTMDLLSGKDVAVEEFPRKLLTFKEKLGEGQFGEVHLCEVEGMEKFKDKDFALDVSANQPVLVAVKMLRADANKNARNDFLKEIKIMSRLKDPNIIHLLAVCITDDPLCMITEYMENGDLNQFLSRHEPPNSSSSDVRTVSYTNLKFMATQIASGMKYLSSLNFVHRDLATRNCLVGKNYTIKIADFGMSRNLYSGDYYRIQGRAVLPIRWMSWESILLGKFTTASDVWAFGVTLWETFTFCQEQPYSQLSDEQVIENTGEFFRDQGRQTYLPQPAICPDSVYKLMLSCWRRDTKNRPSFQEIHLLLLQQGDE
Nature of the series: Inhibition of DDR2 (unknown origin) assessed as residual activity at 10 uM incubated for 5 mins in presence of [gamma-33ATP] by scintillation counting based radiometry assay relative to control.

The target in series [7] is Tyrosine-protein kinase Lck (Homo sapiens, UniProt P06239). Nature of the series: Inhibition of LCK (unknown origin) assessed as residual activity at 10 uM incubated for 5 mins in presence of [gamma-33ATP] by scintillation counting based radiometry assay relative to control.
Tyrosine-protein kinase Lck, sequence (P06239 2-509 limits assumed): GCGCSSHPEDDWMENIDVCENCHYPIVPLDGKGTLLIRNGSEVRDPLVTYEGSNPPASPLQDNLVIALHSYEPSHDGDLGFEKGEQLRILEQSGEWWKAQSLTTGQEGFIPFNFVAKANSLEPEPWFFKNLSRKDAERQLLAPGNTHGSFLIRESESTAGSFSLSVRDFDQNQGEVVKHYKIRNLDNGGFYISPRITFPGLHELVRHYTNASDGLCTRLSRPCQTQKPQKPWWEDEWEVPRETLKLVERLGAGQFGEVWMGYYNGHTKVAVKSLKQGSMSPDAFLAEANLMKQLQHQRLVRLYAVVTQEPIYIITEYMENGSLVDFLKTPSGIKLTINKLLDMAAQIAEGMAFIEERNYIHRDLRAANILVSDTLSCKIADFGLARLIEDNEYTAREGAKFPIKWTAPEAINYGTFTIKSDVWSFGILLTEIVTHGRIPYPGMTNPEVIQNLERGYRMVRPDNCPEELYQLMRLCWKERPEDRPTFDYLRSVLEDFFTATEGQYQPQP
In series [8] the target is Serine/threonine-protein kinase Nek6 (Homo sapiens, UniProt Q9HC98). Nature of the series: Inhibition of NEK6 (unknown origin) assessed as residual activity at 10 uM incubated for 5 mins in presence of [gamma-33ATP] by scintillation counting based radiometry assay relative to control.
Serine/threonine-protein kinase Nek6, sequence (Q9HC98 whole entry): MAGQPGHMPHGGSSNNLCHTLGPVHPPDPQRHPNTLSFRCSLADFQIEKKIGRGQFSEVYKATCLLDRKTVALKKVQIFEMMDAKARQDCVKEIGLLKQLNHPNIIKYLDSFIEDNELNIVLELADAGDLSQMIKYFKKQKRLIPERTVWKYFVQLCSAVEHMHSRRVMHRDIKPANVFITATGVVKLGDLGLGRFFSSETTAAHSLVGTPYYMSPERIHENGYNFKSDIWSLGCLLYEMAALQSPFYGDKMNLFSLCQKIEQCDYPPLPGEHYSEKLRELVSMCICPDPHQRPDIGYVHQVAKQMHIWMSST
A further series is filed under the species Homo sapiens. Nature of the series: Inhibition of VEGFR (unknown origin) assessed as residual activity at 10 uM incubated for 5 mins in presence of [gamma-33ATP] by scintillation counting based radiometry assay relative to control.
The target in the next series is Cytochrome P450 3A4 (Homo sapiens, UniProt P08684). Nature of the series: Inhibition of human recombinant CYP3A4 expressed in insect cell microsomes in presence of NADPH by fluorescence assay. The series is classed as ADME.
Cytochrome P450 3A4, sequence (P08684 whole entry): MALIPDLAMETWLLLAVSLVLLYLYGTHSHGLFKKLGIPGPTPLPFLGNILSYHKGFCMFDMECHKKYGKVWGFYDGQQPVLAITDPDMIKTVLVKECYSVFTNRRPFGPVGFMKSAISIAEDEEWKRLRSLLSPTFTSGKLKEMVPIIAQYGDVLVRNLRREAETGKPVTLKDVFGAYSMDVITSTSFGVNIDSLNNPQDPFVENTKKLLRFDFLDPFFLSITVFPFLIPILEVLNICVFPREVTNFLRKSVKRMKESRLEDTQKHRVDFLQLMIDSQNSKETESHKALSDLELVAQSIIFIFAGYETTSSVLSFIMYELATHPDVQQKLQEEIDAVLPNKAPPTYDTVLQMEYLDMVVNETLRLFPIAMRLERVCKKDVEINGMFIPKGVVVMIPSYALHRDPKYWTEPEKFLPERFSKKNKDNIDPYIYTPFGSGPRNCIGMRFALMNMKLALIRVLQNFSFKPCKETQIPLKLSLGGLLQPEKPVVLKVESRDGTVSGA
For series [9], the target named is Tyrosine-protein kinase ABL1 (Homo sapiens, UniProt P00519). Nature of the series: Inhibition of human ABL1 assessed as residual activity using EAIYAAPFAKKK as substrate by [gamma-33P]-ATP assay.
Tyrosine-protein kinase ABL1, sequence (P00519 whole entry): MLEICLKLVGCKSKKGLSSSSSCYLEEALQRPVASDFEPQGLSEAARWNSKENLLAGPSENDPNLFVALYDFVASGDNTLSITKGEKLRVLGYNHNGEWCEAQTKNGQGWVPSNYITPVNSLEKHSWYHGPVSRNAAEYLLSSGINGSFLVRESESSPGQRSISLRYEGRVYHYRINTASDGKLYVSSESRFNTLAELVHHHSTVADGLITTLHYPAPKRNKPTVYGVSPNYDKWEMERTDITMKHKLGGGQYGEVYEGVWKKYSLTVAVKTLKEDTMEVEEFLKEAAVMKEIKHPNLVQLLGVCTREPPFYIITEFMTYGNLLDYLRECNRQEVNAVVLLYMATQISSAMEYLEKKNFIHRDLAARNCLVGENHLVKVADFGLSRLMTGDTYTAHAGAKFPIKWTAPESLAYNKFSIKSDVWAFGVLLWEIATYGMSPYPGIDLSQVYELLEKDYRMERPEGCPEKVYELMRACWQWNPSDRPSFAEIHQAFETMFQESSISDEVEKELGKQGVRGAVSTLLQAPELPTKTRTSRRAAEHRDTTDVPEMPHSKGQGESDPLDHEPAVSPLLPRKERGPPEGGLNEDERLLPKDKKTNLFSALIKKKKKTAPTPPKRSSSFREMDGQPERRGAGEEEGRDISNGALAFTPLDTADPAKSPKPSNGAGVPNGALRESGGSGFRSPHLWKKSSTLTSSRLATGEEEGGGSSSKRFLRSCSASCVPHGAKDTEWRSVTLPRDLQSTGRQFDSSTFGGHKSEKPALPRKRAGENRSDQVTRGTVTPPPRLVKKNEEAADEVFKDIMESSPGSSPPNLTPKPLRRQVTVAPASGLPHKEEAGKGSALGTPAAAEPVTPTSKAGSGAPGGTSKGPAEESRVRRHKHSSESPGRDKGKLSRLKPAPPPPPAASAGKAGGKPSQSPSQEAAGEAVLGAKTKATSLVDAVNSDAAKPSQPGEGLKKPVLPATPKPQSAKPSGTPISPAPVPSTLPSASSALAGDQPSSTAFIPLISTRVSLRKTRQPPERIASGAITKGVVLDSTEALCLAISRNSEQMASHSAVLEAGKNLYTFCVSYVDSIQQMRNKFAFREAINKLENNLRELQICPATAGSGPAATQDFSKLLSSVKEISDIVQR
The target of series [10] is Voltage-gated inwardly rectifying potassium channel KCNH2 (Homo sapiens, UniProt Q12809). Nature of the series: Inhibition of human ERG incubated for 4 hrs by competitive fluorescence tracer binding based assay.
Voltage-gated inwardly rectifying potassium channel KCNH2, sequence (Q12809 whole entry): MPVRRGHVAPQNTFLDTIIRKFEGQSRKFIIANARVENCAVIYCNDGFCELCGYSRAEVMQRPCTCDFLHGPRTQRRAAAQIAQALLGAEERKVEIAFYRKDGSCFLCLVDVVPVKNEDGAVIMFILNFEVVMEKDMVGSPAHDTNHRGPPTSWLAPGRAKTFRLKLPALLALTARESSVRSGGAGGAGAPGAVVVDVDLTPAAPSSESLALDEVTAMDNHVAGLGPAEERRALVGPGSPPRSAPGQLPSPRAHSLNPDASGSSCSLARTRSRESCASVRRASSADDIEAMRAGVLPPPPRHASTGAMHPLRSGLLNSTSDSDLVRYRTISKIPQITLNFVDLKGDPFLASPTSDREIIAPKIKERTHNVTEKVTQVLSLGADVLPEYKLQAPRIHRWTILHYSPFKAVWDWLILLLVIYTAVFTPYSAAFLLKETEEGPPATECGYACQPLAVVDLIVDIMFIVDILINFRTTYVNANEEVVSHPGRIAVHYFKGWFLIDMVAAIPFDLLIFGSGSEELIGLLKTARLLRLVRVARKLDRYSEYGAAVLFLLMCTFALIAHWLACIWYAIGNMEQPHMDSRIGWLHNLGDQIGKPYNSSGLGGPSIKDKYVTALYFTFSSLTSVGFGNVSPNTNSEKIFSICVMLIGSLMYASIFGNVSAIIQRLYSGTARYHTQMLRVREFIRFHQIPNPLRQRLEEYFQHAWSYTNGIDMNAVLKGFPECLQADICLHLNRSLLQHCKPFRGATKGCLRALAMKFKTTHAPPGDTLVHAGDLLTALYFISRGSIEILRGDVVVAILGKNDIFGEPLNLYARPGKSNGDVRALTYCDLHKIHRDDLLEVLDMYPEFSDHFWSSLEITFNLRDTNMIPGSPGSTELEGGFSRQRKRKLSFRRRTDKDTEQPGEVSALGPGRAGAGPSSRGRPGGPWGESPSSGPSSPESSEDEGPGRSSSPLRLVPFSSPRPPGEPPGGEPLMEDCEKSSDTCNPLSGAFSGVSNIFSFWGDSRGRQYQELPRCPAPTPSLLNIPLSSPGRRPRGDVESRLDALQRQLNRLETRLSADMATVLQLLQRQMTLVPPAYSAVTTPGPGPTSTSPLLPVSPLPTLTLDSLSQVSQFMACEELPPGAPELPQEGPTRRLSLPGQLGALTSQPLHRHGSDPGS

What is called half-life is the time needed for the level to fall by half in the phase considered. The term IC50 denotes the concentration that gives 50% inhibition.

Each structure is given as a SMILES string.

Proto-oncogene tyrosine-protein kinase Src, sequence (P12931 2-536 limits assumed): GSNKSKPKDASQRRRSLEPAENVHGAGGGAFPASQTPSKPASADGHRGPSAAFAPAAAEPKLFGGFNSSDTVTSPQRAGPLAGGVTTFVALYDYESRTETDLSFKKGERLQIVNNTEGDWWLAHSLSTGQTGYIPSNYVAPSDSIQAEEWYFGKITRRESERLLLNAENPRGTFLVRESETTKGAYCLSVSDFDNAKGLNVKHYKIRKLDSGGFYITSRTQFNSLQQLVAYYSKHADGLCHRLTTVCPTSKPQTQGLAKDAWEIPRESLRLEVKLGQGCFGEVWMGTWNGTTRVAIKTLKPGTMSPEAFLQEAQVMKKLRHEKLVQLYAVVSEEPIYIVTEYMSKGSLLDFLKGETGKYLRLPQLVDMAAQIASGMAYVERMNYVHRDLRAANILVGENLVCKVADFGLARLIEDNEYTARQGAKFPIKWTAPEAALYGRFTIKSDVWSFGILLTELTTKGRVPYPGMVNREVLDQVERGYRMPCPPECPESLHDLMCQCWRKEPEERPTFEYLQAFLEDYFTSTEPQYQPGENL

Take `Cc1ccc(C(=O)Nc2ccc(CN3CCN(C)CC3)c(C(F)(F)F)c2)cc1C#Cc1cnc2cccnn12` [PONATINIB]: the Activity in series [1] was determined as 11%; in [3], 2%; in series [4] it was 2%; in series [6] it was 3%; in [7], 29%; in [8], 52%. Besides, the Activity in the series filed under Homo sapiens was found to be 28%. In addition, the half-life at 3 µM in series [2] is 3.04 h; in [5], 0.532 h.
Take `Cc1ccc(C(=O)Nc2ccc(CN3CCN(CCO)CC3)c(Cl)c2)cc1C#Cc1cnc2cccnn12`: the IC50 on Cytochrome P450 3A4 was determined as 13400 nM; in series [9], 0.39 nM; in series [10], 100 nM.
Take `Cc1ccc(C(=O)Nc2ccc(CN3Cc4ccc(O)cc4C3)c(Cl)c2)cc1C#Cc1cnc2cccnn12`: the half-life at 3 µM amounted to 2.63 h in [2] and 0.441 h in series [5]. The IC50 in series [9] is above 30 nM.
Turning to `Cc1ccc(C(=O)Nc2ccc(CN3CCN(CCO)CC3)c(C3CC3)c2)cc1C#Cc1cnc2cccnn12`, the IC50 is 0.3 nM in series [9] and 340 nM in [10].
With `COCCN1CCN(Cc2ccc(NC(=O)c3ccc(C)c(C#Cc4cnc5cccnn45)c3)cc2C2CC2)CC1`, the IC50 at Cytochrome P450 3A4 worked out at 13500 nM; in series [10], 80 nM.

Source of the values: ChEMBL document CHEMBL4602709 (ACS Med Chem Lett, 2020).
